Patent publication US11370794B2, “Toll-like receptor antagonist compounds and methods of use” (Dynavax Technologies Corporation, priority 2016, dated 2022)
Like-named read-outs stand apart in the source and are kept apart here.

What was measured:
human TLR8 = molecular target: T1, human TLR8 (Homo sapiens, UniProt Q9NR97); assay: Inhibition of human TLR8 in human monocytes (TNF-alpha / IL-1 beta ELISA); type: cell-based; settings: for IC50: human monocytes, agonist ORN8L 100 μg/mL, 24 hours; for inhibits TLR8-dependent responses (in words): summary statement of the description
T1 construct: endogenous in cells; host or cells: primary human monocytes (CD14 microbeads) from buffy coats of healthy donors
T1 sequence (Q9NR97 27-1041): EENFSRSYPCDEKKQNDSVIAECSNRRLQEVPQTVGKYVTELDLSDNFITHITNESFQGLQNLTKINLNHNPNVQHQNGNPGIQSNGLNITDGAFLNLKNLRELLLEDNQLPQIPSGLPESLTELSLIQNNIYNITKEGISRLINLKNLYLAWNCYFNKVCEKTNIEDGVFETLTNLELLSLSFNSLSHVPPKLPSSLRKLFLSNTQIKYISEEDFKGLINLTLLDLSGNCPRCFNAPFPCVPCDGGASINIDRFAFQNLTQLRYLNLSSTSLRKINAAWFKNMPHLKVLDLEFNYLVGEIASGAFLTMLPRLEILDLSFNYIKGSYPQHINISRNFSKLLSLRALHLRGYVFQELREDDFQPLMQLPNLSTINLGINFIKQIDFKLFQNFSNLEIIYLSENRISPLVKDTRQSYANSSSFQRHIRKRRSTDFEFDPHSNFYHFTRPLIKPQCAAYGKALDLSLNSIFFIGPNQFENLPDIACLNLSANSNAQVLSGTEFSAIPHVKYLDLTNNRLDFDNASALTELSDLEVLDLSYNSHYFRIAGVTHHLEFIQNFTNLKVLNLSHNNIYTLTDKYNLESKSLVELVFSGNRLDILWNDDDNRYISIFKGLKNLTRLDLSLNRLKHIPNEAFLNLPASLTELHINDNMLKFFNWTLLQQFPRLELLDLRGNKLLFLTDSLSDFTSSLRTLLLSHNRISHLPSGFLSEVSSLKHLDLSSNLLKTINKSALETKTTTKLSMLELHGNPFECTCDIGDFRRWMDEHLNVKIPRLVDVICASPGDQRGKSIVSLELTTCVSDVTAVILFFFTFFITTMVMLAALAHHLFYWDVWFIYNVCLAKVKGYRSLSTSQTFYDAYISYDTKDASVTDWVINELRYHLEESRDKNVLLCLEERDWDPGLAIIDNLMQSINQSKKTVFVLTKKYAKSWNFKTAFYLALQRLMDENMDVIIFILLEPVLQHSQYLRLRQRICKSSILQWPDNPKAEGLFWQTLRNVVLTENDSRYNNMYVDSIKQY
Summary of the method: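 Primary human monocytes from donor buffy coats (~200,000 cells/well) given serially diluted compound, then ORN8L RNA oligonucleotide agonist at 100 μg/mL final. After 24 h at 37 °C, supernatant TNF-alpha and/or IL-1 beta measured by ELISA; IC50 from the concentration-response of cytokine release.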

[1] = Metabolic stability in human liver microsomes; type: in vitro ADME; settings: 0.5 mg/mL microsomal protein, 1.5 μM compound, 37° C.; for half-life at 1.5 μM: 0-45 minutes, read-out: T1/2 in human liver microsomes
Protocol: Example B7—Metabolic Stability
The stability of compounds in human liver microsomes was tested. Human liver microsomes (from BD Gentest) were spiked with compounds to a final liver microsomal protein concentration of 0.5 mg/mL and a final compound concentration of 1.5 μM. Samples were incubated for 0, 5, 15, 30, 45 minutes at 37° C. The reaction was stopped by the addition of acetonitrile. An aliquot of the stopped reaction was mixed with ultra-pure water (Millipore, ZMQS50F01) and analyzed by liquid chromatography/electrospray ionization mass spectroscopy.

[2] = Plasma stability in human plasma; type: in vitro ADME; settings: plasma (90%); 90% human plasma, 2 μM compound, 37° C., 0-60 minutes; read-out: T1/2 in human plasma
Protocol: Example B6—Plasma Stability
The stability of compounds in human plasma was tested. Human plasma was spiked with compound to final concentration of 90% plasma and 2 μM compound. Samples were incubated for 0, 5, 15, 30, 45 and 60 minutes at 37° C. The reaction was stopped by the addition of acetonitrile. An aliquot of the stopped reaction was mixed with ultra-pure water (Millipore, ZMQS50F01) and analyzed by liquid chromatography/electrospray ionization mass spectroscopy.

[3] = IL-1 beta readout, read-out: Human TLR8 IC50 IL-1b
[4] = TNF-alpha readout, read-out: Human TLR8 IC50 TNF-a

| SMILES | IC50 (human TLR8; [3]) [µM] | IC50 (human TLR8; [4]) [µM] | inhibits TLR8-dependent responses (in words) (human TLR8) | CLint scaled at 1.5 μM [1] [mL/min/kg] | half-life at 1.5 μM [1] [h] | half-life at 2 μM [2] [h] |
| --- | --- | --- | --- | --- | --- | --- |
| Cc1ccc(-n2nc3c(N4CCC(C(=O)NCC(C)(C)CNc5ccccc5)CC4)nnc(C)c3c2C)cc1 [2-1] | 9.92 | 9.77 | – | – | – | – |
| Cc1ccc(-n2nc3c(N4CCC(C(=O)NCCCN(C)Cc5ccccc5)CC4)nnc(C)c3c2C)cc1 [Compound No. 1, N-(3-(benzyl(methyl)amino)propyl)-1-(3,4-dimethyl-2-(p-tolyl)-2H-pyrazolo[3,4-d]pyridazin-7-yl)piperidine-4-carboxamide] | 0.74 | 0.62 | inhibit | 347 | 0.0833 | 3.74 |
| Cc1ccc(-n2nc3c(N4CCC(C(=O)N5CCN(Cc6ccccc6)CC5)CC4)nnc(C)c3c2C)cc1 [Compound No. 2, (4-benzylpiperazin-1-yl)(1-(3,4-dimethyl-2-(p-tolyl)-2H-pyrazolo[3,4-d]pyridazin-7-yl)piperidin-4-yl)methanone] | 0.9 | 0.67 | inhibit | – | – | – |
| Cc1ccc(-n2nc3c(N4CCC(C(=O)NC5CN(C)C5)CC4)nnc(C)c3c2C)cc1 [Compound No. 3, 1-(3,4-dimethyl-2-(p-tolyl)-2H-pyrazolo[3,4-d]pyridazin-7-yl)-N-(1-methylazetidin-3-yl)piperidine-4-carboxamide] | > 10 | > 10 | – | 4.5 | 6.4 | 3.45 |
| Cc1ccc(-n2nc3c(N4CCC(C(=O)NC5CN(Cc6ccccc6)C5)CC4)nnc(C)c3c2C)cc1 [Compound No. 4, N-(1-benzylazetidin-3-yl)-1-(3,4-dimethyl-2-(p-tolyl)-2H-pyrazolo[3,4-d]pyridazin-7-yl)piperidine-4-carboxamide] | 1.01 | 0.77 | inhibit | – | – | – |
| Cc1ccc(-n2nc3c(N4CCC(C(=O)NCCCN(C)C)CC4)nnc(C)c3c2C)cc1 [Compound No. 5, 1-(3,4-dimethyl-2-(p-tolyl)-2H-pyrazolo[3,4-d]pyridazin-7-yl)-N-(3-(dimethylamino)propyl)piperidine-4-carboxamide] | > 10 | > 10 | – | 2.2 | 13.3 | 17.9 |
| Cc1ccc(-n2nc3c(N4CCC(C(=O)NCCCc5c[nH]cn5)CC4)nnc(C)c3c2C)cc1 [Compound No. 6, N-(3-(1H-imidazol-4-yl)propyl)-1-(3,4-dimethyl-2-(p-tolyl)-2H-pyrazolo[3,4-d]pyridazin-7-yl)piperidine-4-carboxamide] | > 10 | 6.68 | – | – | – | – |
| Cc1ccc(-n2nc3c(N4CCC(CCC(=O)NCCN(C)C)CC4)nnc(C)c3c2C)cc1 [Compound No. 9, 3-(1-(3,4-dimethyl-2-(p-tolyl)-2H-pyrazolo[3,4-d]pyridazin-7-yl)piperidin-4-yl)-N-(2-(dimethylamino)ethyl)propanamide] | 5.02 | 1.22 | – | – | – | – |
